Laboratory results from PMC3344907, “Inhibitory Effects and Underlying Mechanism of 7-Hydroxyflavone Phosphate Ester in HeLa Cells” (PLoS ONE, 2012).

What was measured:
[1] = target: T1, CaM-activated PDE1 (Ca2+-CaM-phosphodiesterase 1); assay: PDE-Glo luminescence assay of CaM-activated PDE; supported by fluorescence quenching of the CaM-Ca2+-PDE system; assay type: biochemical, Bos taurus
T1 construct: bovine brain PDE (Sigma-Aldrich P9529); with calmodulin (CaM)

[2] = target: T1, CaM-activated PDE1 (Ca2+-CaM-phosphodiesterase 1); assay: PDE-Glo luminescence assay of CaM-activated PDE; assay type: biochemical, Bos taurus

Compound	IC50 [1]	IC50 [2]
CCOP(=O)(OCC)Oc1ccc2c(=O)cc(-c3ccccc3)oc2c1 [FP, diethyl flavon-7-yl phosphate]	22.3 µM	
O=c1cc(-c2ccccc2)oc2cc(O)ccc12 [HF, 7-hydroxyflavone]		76.7 µM
